Several values for one entry are separate records, joined by “and”; a condition that tells them apart may be missing. Identical values can stand only once. Toxic doses and inconclusive results are not listed.

This experiment deals with B6C3F1 mice, Lewis lung carcinoma iv, survival T/C. Briefly: NCI In Vivo Anticancer Drug Screen. Data for tumor model Lewis Lung Carcinoma (intravenous) in B6C3F1 mice. The note with it: endpoint: median survival time, higher = longer survival. The method, boiled down: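 T/C ratio derived from survival of compound-treated versus vehicle-treated mice bearing transplantable tumors.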

Setting [1] is: dose: 0.12 mg/kg/injection, schedule: Q01DX009 (ip), vehicle: saline.
Where [2] appears, read: dose: 0.25 mg/kg/injection, schedule: Q01DX009 (ip), vehicle: saline.
[3] abbreviates: dose: 0.5 mg/kg/injection, schedule: Q01DX009 (ip), vehicle: saline.
[4] abbreviates: dose: 25.0 mg/kg/injection, schedule: Q01DX009 (ip), vehicle: saline.
Where [5] appears, read: dose: 12.5 mg/kg/injection, schedule: Q01DX009 (ip), vehicle: saline.
Where [6] appears, read: dose: 50.0 mg/kg/injection, schedule: Q01DX009 (ip), vehicle: saline.
Where [7] appears, read: dose: 100.0 mg/kg/injection, schedule: Q01DX009 (ip), vehicle: saline.
[8] abbreviates: dose: 200.0 mg/kg/injection, schedule: Q01DX009 (ip), vehicle: saline.
Where [9] appears, read: dose: 12.0 mg/kg/injection, schedule: Q01DX009 (ip), vehicle: saline.
Where [10] appears, read: dose: 12.5 mg/kg/injection, schedule: Q01DX009 (ip), vehicle: Klucel (hydroxypropylcellulose) (HPC).
Setting [11] is: dose: 25.0 mg/kg/injection, schedule: Q01DX009 (ip), vehicle: Klucel (hydroxypropylcellulose) (HPC).
Setting [12] is: dose: 50.0 mg/kg/injection, schedule: Q01DX009 (ip), vehicle: Klucel (hydroxypropylcellulose) (HPC).

Consider `O=C1C(NCCO)=C(N2CC2)C(=O)C(NCCO)=C1N1CC1`, for which the T/C is, setting by setting: (dose: 0.06 mg/kg/injection, schedule: Q01DX009 (ip), vehicle: saline) 103 % of control; under setting [1], 97 % of control; under setting [2], 106 % of control; under setting [3], 108 % of control; (dose: 1.0 mg/kg/injection, schedule: Q01DX009 (ip), vehicle: saline) 106 % of control.
Regarding `CCSC(=O)N1c2ccc(OC)cc2C=CC1C#N` (stereo unspecified), the T/C (dose: 12.5 mg/kg/injection, schedule: Q01DX009 (ip), vehicle: saline with Tween-80) was 98 % of control; the T/C (dose: 25.0 mg/kg/injection, schedule: Q01DX009 (ip), vehicle: saline with Tween-80) is 113 % of control; the T/C (dose: 50.0 mg/kg/injection, schedule: Q01DX009 (ip), vehicle: saline with Tween-80) is 99 % of control; the T/C (dose: 100.0 mg/kg/injection, schedule: Q01DX009 (ip), vehicle: saline with Tween-80) was 104 % of control; the T/C (dose: 200.0 mg/kg/injection, schedule: Q01DX009 (ip), vehicle: saline with Tween-80) is 110 % of control; the T/C (dose: 400.0 mg/kg/injection, schedule: Q01DX009 (ip), vehicle: saline with Tween-80) was 108 % of control.
Regarding `C1OC1C1CO1` (stereo unspecified), the T/C reads like this: (dose: 1.25 mg/kg/injection, schedule: Q01DX009 (ip), vehicle: suspension in saline) 101 % of control; (dose: 2.5 mg/kg/injection, schedule: Q01DX009 (ip), vehicle: suspension in saline) 112 % of control; (dose: 5.0 mg/kg/injection, schedule: Q01DX009 (ip), vehicle: suspension in saline) 105 % of control; (dose: 10.0 mg/kg/injection, schedule: Q01DX009 (ip), vehicle: suspension in saline) 99 % of control; (dose: 20.0 mg/kg/injection, schedule: Q01DX009 (ip), vehicle: suspension in saline) 101 % of control; (dose: 40.0 mg/kg/injection, schedule: Q01DX009 (ip), vehicle: suspension in saline) 108 % of control.
With `CC1OC(OC2CC(O)(C(=O)CO)Cc3c(O)c4c(c(O)c32)C(=O)c2ccccc2C4=O)CC(N)C1O` (stereo unspecified), the T/C is 110 % of control (dose: 0.06 mg/kg/injection, schedule: Q01DX009 (ip), vehicle: water); 105 % of control (dose: 0.12 mg/kg/injection, schedule: Q01DX009 (ip), vehicle: other); 108 % of control under setting [1]; 122 % of control (dose: 0.12 mg/kg/injection, schedule: Q01DX009 (ip), vehicle: water); 113 % of control (dose: 0.25 mg/kg/injection, schedule: Q01DX009 (ip), vehicle: other); 103 % of control under setting [2]. In addition, the T/C is 112 % of control (dose: 0.25 mg/kg/injection, schedule: Q01DX009 (ip), vehicle: water); 110 % of control under setting [3]; 120 % of control (dose: 0.5 mg/kg/injection, schedule: Q01DX009 (ip), vehicle: water); 173 % of control (dose: 1.0 mg/kg/injection, schedule: Q01DX009 (ip), vehicle: water).
For the compound `CN(N=O)C(N)=O`, the T/C is 123 % of control (dose: 3.0 mg/kg/injection, schedule: Q01DX009 (ip), vehicle: saline) and 107 % of control under setting [4].
As for `NC(Cn1ccc(=O)c(O)c1)C(=O)O` (stereo unspecified), the T/C is, setting by setting: under setting [5], 94 % of control; under setting [4], 98 % of control; under setting [6], 102 % of control; under setting [7], 94 % of control; under setting [8], 94 % of control.
Consider `O=c1[nH]c(=O)n(C2CC(O)C(CO)O2)cc1F` (stereo unspecified), for which the T/C was 102 % of control (dose: 147.0 mg/kg/injection, schedule: Q04DX003 (ip), vehicle: saline) and 118 % of control (dose: 210.0 mg/kg/injection, schedule: Q04DX003 (ip), vehicle: saline).
As to `O=CC(S)CO` (stereo unspecified), the T/C is, setting by setting: under setting [5], 105 % of control and 107 % of control; under setting [4], 95 % of control and 107 % of control; under setting [6], 101 % of control and 102 % of control; under setting [7], 101 % of control and 112 % of control; under setting [8], 96 % of control and 102 % of control.
On to `CCn1cnc2c(=S)nc[nH]c21`, for which the T/C is, setting by setting: under setting [9], 100 % of control; under setting [4], 99 % of control; under setting [6], 104 % of control.
With `C=C(C)[C@H]1CN[C@H](C(=O)O)[C@H]1CC(=O)O`, the T/C was 113 % of control (dose: 0.31 mg/kg/injection, schedule: Q01DX009 (ip), vehicle: saline); 103 % of control (dose: 0.62 mg/kg/injection, schedule: Q01DX009 (ip), vehicle: saline); 112 % of control (dose: 1.25 mg/kg/injection, schedule: Q01DX009 (ip), vehicle: saline); 100 % of control (dose: 2.5 mg/kg/injection, schedule: Q01DX009 (ip), vehicle: saline); 112 % of control (dose: 5.0 mg/kg/injection, schedule: Q01DX009 (ip), vehicle: saline); 107 % of control (dose: 10.0 mg/kg/injection, schedule: Q01DX009 (ip), vehicle: saline).
Turning to `NC(=O)c1ncn2c(=O)n(CCCl)nnc12`, the T/C is, setting by setting: (dose: 3.13 mg/kg/injection, schedule: Q01DX009 (ip), vehicle: saline) 113 % of control; (dose: 6.25 mg/kg/injection, schedule: Q01DX009 (ip), vehicle: saline) 123 % of control; under setting [4], 309 % of control.
Turning to `[N-]=[N+]=CC(=O)CCC(=O)C=[N+]=[N-]`, the T/C reads like this: (dose: 0.39 mg/kg/injection, schedule: Q01DX009 (ip), vehicle: DMSO) 92 % of control; (dose: 0.78 mg/kg/injection, schedule: Q01DX009 (ip), vehicle: DMSO) 95 % of control; (dose: 1.5 mg/kg/injection, schedule: Q01DX009 (ip), vehicle: DMSO) 121 % of control; (dose: 3.0 mg/kg/injection, schedule: Q01DX009 (ip), vehicle: DMSO) 112 % of control; (dose: 6.0 mg/kg/injection, schedule: Q01DX009 (ip), vehicle: DMSO) 115 % of control; (dose: 25.0 mg/kg/injection, schedule: Q01DX009 (ip), vehicle: DMSO) 108 % of control.
As for `O=NN(CCCl)C(=O)NC1OC(CO)C(O)C(O)C1O` (stereo unspecified), the T/C (dose: 2.0 mg/kg/injection, schedule: Q01DX009 (ip), vehicle: saline) was 121 % of control.
As to `COc1ccc(Cl)[n+]([O-])n1`, the T/C is 98 % of control (dose: 0.39 mg/kg/injection, schedule: Q01DX009 (ip), vehicle: Klucel (hydroxypropylcellulose) (HPC)); 91 % of control (dose: 0.78 mg/kg/injection, schedule: Q01DX009 (ip), vehicle: Klucel (hydroxypropylcellulose) (HPC)); 103 % of control (dose: 1.56 mg/kg/injection, schedule: Q01DX009 (ip), vehicle: Klucel (hydroxypropylcellulose) (HPC)); 96 % of control (dose: 3.12 mg/kg/injection, schedule: Q01DX009 (ip), vehicle: Klucel (hydroxypropylcellulose) (HPC)); 100 % of control and 88 % of control (dose: 6.25 mg/kg/injection, schedule: Q01DX009 (ip), vehicle: Klucel (hydroxypropylcellulose) (HPC)); 99 % of control and 105 % of control under setting [10]. In addition, the T/C by setting is: under setting [11], 107 % of control; under setting [12], 112 % of control.
As for `COc1cc2c(ccc3c4cc(OC)c(OC)cc4c[n+](C)c23)cc1O`, the T/C was 111 % of control under setting [4] and 113 % of control under setting [6].
Take `Cc1ccc(NCCN(C)C)c2c(=O)c3cc(O)ccc3sc12`: the T/C runs as follows: (dose: 12.0 mg/kg/injection, schedule: Q01DX009 (ip), vehicle: Klucel (hydroxypropylcellulose) (HPC)) 101 % of control; under setting [10], 103 % of control; under setting [11], 105 % of control and 121 % of control; under setting [12], 121 % of control and 123 % of control; (dose: 100.0 mg/kg/injection, schedule: Q01DX009 (ip), vehicle: Klucel (hydroxypropylcellulose) (HPC)) 120 % of control and 232 % of control; (dose: 200.0 mg/kg/injection, schedule: Q01DX009 (ip), vehicle: Klucel (hydroxypropylcellulose) (HPC)) 155 % of control.
Consider `c1csc(C[N+]23CN4CN(CN(C4)C2)C3)c1`, for which the T/C under setting [9] is 100 % of control; the T/C under setting [4] is 101 % of control; the T/C under setting [6] was 96 % of control; the T/C under setting [7] was 96 % of control; the T/C under setting [8] is 110 % of control.

Values taken from PubChem BioAssay AID276 (DTP/NCI, 2004).
